Here are results for 2 molecules from EP1652531A1, “Use of GLP-1 or Analogues in Treatment of Stroke” (Eli Lilly & Company, priority 1998, dated 2006).

In data set [1] the test system is STC-1 cells. Particulars: exposure of STC-1 cells (Abella et al., 1994); cited from earlier work.
The subject of data set [2] is NIDDM patients. Put plainly: Infusion for three hours at each meal during the day, blood glucose in NIDDM patients (Example 2). The following applies: five NIDDM patients.
For data set [3], the system named is patients having non-insulin dependent diabetes (NIDDM). Kind of data set: Overnight continuous subcutaneous infusion, blood glucose in NIDDM patients (Example 1). The following applies: five NIDDM patients; subcutaneous infusion 1.2 pmol/kg/hr for ten hours during the night.

For the molecule “12-O-tetradecanoylphobol-13-acetate [TPA]”, the “release of GLP-1” value in data set [1] is listed as “significant increases”.

Regarding `CC[C@H](C)[C@H](NC(=O)[C@H](Cc1ccccc1)NC(=O)[C@H](CCC(=O)O)NC(=O)[C@H](CCCCN)NC(=O)[C@H](C)NC(=O)[C@H](C)NC(=O)[C@H](CCC(N)=O)NC(=O)CNC(=O)[C@H](CCC(=O)O)NC(=O)[C@H](CC(C)C)NC(=O)[C@H](Cc1ccc(O)cc1)NC(=O)[C@H](CO)NC(=O)[C@H](CO)NC(=O)[C@@H](NC(=O)[C@H](CC(=O)O)NC(=O)[C@H](CO)NC(=O)[C@@H](NC(=O)[C@H](Cc1ccccc1)NC(=O)[C@@H](NC(=O)CNC(=O)[C@H](CCC(=O)O)NC(=O)[C@H](C)NC(=O)[C@@H](N)Cc1c[nH]cn1)[C@@H](C)O)[C@@H](C)O)C(C)C)C(=O)N[C@@H](C)C(=O)N[C@@H](Cc1c[nH]c2ccccc12)C(=O)N[C@@H](CC(C)C)C(=O)N[C@H](C(=O)N[C@@H](CCCCN)C(=O)NCC(=O)N[C@@H](CCCNC(=N)N)C(N)=O)C(C)C` [GLP-1(7-36) amide], the untoward side effects entry in data set [2] was “No untoward side effects”. Further, the hypoglycemia entry in data set [3] is reported as “without inducing hypoglycemia in any of the patients”.
